From patent US9567371B2, “Short beta-defensin-derived peptides” (Yeda Research and Development Co. Ltd., priority 2009, dated 2017)
Peptide text beside a SMILES is read from it.

Columns and labels:
G2 cells = test: Transwell migration towards SDF-1; format: cell-based, human
Method: FIGS. 8A-8D. Effect of TL-1 and cyclic TL-1 on in vitro and in vivo cell migration. (A, C) Human CD3^+, G2, cord blood CD34^+ and peripheral blood mononuclear (PBMC) cells were preincubated with 1 and 10 μM TL-1 for 3 hrs in serum free medium, washed and allowed to migrate towards SDF-1. Migrated cells were collected and calculated by flow cytometry. Percentage of migrated cells is presented as compared to untreated (UT) control taken as 100%. (B) G2 cells were similarly preincubated with 10 μM TL-1 or cTL-1 for the indicated periods of time and percentage of migrated cells is depicted. (D) Homing assay. G2 cells were similarly preincubated with 10 μM TL-1 or cTL-1 for 3 hrs, washed and i.v. injected (10×10^6/mouse) to non-irradiated NOD/SCID mice. Percentage of G2 cells in the murine BM and spleens was determined by staining with anti-human CD45 Ab and compared with untreated (UT) cells. […]
FIGS. 9A-9B. […] Migrated cells were collected and calculated by flow cytometry. […]
Various cells (1×10^6/mL), untreated or pretreated with peptides for 3 hrs at 96-well flat bottom plates at 37° C. were washed, 2×10^5 cells/100 μL were added to the upper chambers of Costar 24-well transwell plates with 5 μm pore filters (Corning Inc., Corning, N.Y.) and allowed to migrate for 2-4 hrs at 37° C. […] Migrated cells were collected from the lower chambers and counted using a flow cytometer. […]

CD45 = CD45 membrane expression (flow cytometry); format: cell-based, human; conditions: tested cells, 3 hrs preincubation
Method: (§1) Various cell types (1×10^6/mL) were pretreated with the peptides for 3 hrs as described above, washed and then stained in staining buffer (PBS supplemented with 0.5% FCS and 0.01% sodium azide) with mouse anti-human CXCR4-PE, CCR5-FITC (R&D Systems, Minneapolis, Minn.) or CD45-FITC (ImmunoQuality Products, Groningen, The Netherlands) mAbs for 30 min at 4° C. and analyzed by flow cytometry as described (Kalinkovich, A., et al., 2006). Appropriate IgG were used as the isotype controls.
(§2) Recently, it has been shown that HBD3 could induce internalization of CXCR4 but not of CCR5 in the CEM T cells expressing both CXCR4 and CCR5 (Feng, Z. et al., 2006) implying CXCR4 specificity in HBD3 action.

SDF-1 = SDF-1 plasma levels in injected mice (ELISA); format: in vivo, mouse; conditions: 5 mg/kg s.c., compared with mice injected with PBS
Method: (§3) SDF-1 levels in tested samples were determined by ELISA as described (Kalinkovich, A., et al., 2006) where the K15C monoclonal antibodies (mAb, INRA, Paris, France) recognizing the first three amino acids of SDF-1 were utilized as a capture Ab (10 μg/mL) in order to measure levels of intact, non-cleaved SDF-1. Levels of basic FGF (bFGF) and HGF in tested samples were determined by using corresponding capture mAbs and polyclonal biotynilated Abs (R&D Systems) as recommended by the manufacturer. In order to examine SDF-1, bFGF and HGF levels in cell supernatants, MS-5, MBA-15 and MG-63 cells were seeded in 24-well Costar wells and cultivated in RPMI 1640 or αMEM Eagle medium, respectively, with 10% FCS. When the cells reached confluence, the medium was changed to serum free medium and cells were cultivated for additional 6 hrs in the presence of various concentrations of the peptides. Medium samples were collected and centrifuged 10 min at 6000×g at 4° C. to remove cell debris. Supernatants were collected and kept at −70° C. until tested.

CXCR4 = biological target: T1, CXCR4 (Homo sapiens, UniProt P61073); test: CXCR4 membrane expression (flow cytometry); format: cell-based; conditions: human cord blood CD34+ cells, 1 or 10 μM, 3 hrs
T1 construct: endogenous in cells; host or cells: human cord blood CD34+ cells, human pre-B-ALL G2 cells, U937 and HL-60 cells
T1 sequence (P61073 whole entry): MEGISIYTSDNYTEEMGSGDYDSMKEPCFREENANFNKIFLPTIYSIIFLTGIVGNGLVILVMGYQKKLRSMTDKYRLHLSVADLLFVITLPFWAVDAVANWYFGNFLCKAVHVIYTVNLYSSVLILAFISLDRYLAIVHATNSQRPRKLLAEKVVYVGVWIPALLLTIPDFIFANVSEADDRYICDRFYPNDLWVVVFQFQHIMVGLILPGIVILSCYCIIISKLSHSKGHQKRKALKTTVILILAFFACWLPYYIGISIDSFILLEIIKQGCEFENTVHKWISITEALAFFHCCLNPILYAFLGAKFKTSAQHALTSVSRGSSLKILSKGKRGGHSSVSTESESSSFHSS
Method: FIGS. 10A-10C. TL-1 and cTL1 down-regulate CXCR4 expression on human cord blood CD34^+ and G2 cells. Human cord blood CD34^+ and G2 cells were incubated with 1 or 10 μM TL-1 or cyclic TL-1 for 3 hrs or left untreated (UT), washed, stained with CXCR4 and CCR5 Ab and analyzed by flow cytometry. Representative histograms from 3 separate experiments are shown. FIG. 10A—effect of TL-1 on CXCR4 expression. FIG. 10B—effect of cTL-1 on CXCR4 expression. FIG. 10C—effects of TL-1 and cTL-1 on CCR5 expression.
as §1, §2

MBA-15 cells = test: SDF-1, bFGF and HGF secretion by stromal cells (ELISA of supernatants); format: cell-based, mouse; conditions: 10 μM
Method: (§4) FIGS. 7A-7F. Effect of TL-1, AK-1 and cyclic TL-1 on SDF-1, bFGF and HGF secretion by different stromal cell lines. MS-5, MBA-15 and MG-63 cells were co-cultured with 10 μM TL-1, AK-1 or cyclic TL-1 in the serum free medium for 6 hrs, or without added peptide (UT). Levels of SDF-1 (A-C), bFGF (D) and HGF (E, F) were detected in the collected supernatants by ELISA. Data shown are the mean±SD of 2 separate experiments. *P<0.05 compared to control.
as §3
(§5) Because BM stromal cells, such as endosteal bone lining osteoblasts and endothelial cells are the main source of human and murine SDF-1, the capability of the peptides to affect SDF-1 secretion by mouse stromal MS-5 and MBA-15 cells, and human osteoblast MG-63 cells was examined.
(§6) In order to examine the capability of the peptides to induce secretion of other proteins, the levels of Hepatocyte growth factor (HGF) and Basic fibroblast growth factor (bFGF) were detected in the same supernatants.

MS-5 cells = test: as above; format: cell-based, mouse; conditions: 10 μM, compared with untreated cells
Method: as §4, §3, §5, §6

U937 cells = test: Transwell migration towards SDF-1; format: cell-based, human
Method: Various cells (1×10^6/mL), untreated or pretreated with peptides for 3 hrs at 96-well flat bottom plates at 37° C. were washed, 2×10^5 cells/100 μL were added to the upper chambers of Costar 24-well transwell plates with 5 μm pore filters (Corning Inc., Corning, N.Y.) and allowed to migrate for 2-4 hrs at 37° C. (95% humidity, 5% CO2) spontaneously or towards 50 ng/mL SDF-1 (rhSDF-1, Peprotech, Rocky Hill, N.J.) in medium supplemented with 10% FCS. In the chemotaxis assay, untreated cells were added to the upper chambers and the peptides were added to the lower chambers in serum free medium. Migrated cells were collected from the lower chambers and counted using a flow cytometer. Data are presented as a percentage of migrated cells.
To address this issue, the cells were incubated with the peptides for 3 hrs, washed and then allowed to migrate towards SDF-1.

`N=C(N)NCCC[C@@H]1NC(=O)CNC(=O)[C@H](CCCNC(=N)N)NC(=O)[C@H](CCCCN)NC(=O)[C@H](CCCCN)NC(=O)[C@H](CCCNC(=N)N)NC(=O)[C@H](CCCNC(=N)N)NC(=O)[C@H](CS)NC(=O)[C@H](CS)NC(=O)[C@H](CCCCN)NC1=O` [cyclic TL-1, 1,10-cyclo[RGRKCCRRKK]] (cyclo(CCRRKKRGRK)) was tested, and the SDF-1-induced migration (G2 cells; 1 μM) was “ineffective”, the “inhibition of SDF-1-induced migration” value (G2 cells; 10 μM) was 2 fold and the “membrane expression of CD45” value (CD45) was “either unaffected or slightly increased”. The SDF-1 plasma levels (SDF-1) was “did not induce increase”, the CXCR4 expression (CXCR4) was “decreased CXCR4 expression” and the “HGF secretion into supernatants” value (MBA-15 cells) was “induced elevation”. The “levels of SDF-1 in supernatants” value (MBA-15 cells; compared with untreated cells) was “increased the levels of SDF-1 secretion by MS-5 and MBA-15 cells but much less as compared with TL-1 and AK-1”, the “levels of SDF-1 in supernatants” value (MS-5 cells) was “increased the levels of SDF-1 secretion by MS-5 and MBA-15 cells but much less as compared with TL-1 and AK-1” and the SDF-1-induced migration (U937 cells; 1 μM) was “ineffective”. The “inhibition of SDF-1-induced migration” value (U937 cells; 10 μM) was 2 fold.
